Test results reported in US12655106B2 (Eikonizo Therapeutics, Inc., priority 2021, dated 2026).

How the values were obtained:
Full length Human HDAC6 = target: T1, Full length Human HDAC6 (Homo sapiens, UniProt Q9UBN7); assay: Caliper endpoint assay for HDAC enzymatic activity (HDAC6); format: biochemical; settings: for IC50: in vitro enzymatic, Caliper endpoint assay, 30 min pre-incubation, 1 μM substrate peptide; for Selectivity (6 v 8): ratio of HDAC8 IC50/HDAC6 IC50
T1 construct: Full length Human HDAC6; FLAG (C); host or cells: baculovirus expression system
T1 sequence (Q9UBN7 1-1215): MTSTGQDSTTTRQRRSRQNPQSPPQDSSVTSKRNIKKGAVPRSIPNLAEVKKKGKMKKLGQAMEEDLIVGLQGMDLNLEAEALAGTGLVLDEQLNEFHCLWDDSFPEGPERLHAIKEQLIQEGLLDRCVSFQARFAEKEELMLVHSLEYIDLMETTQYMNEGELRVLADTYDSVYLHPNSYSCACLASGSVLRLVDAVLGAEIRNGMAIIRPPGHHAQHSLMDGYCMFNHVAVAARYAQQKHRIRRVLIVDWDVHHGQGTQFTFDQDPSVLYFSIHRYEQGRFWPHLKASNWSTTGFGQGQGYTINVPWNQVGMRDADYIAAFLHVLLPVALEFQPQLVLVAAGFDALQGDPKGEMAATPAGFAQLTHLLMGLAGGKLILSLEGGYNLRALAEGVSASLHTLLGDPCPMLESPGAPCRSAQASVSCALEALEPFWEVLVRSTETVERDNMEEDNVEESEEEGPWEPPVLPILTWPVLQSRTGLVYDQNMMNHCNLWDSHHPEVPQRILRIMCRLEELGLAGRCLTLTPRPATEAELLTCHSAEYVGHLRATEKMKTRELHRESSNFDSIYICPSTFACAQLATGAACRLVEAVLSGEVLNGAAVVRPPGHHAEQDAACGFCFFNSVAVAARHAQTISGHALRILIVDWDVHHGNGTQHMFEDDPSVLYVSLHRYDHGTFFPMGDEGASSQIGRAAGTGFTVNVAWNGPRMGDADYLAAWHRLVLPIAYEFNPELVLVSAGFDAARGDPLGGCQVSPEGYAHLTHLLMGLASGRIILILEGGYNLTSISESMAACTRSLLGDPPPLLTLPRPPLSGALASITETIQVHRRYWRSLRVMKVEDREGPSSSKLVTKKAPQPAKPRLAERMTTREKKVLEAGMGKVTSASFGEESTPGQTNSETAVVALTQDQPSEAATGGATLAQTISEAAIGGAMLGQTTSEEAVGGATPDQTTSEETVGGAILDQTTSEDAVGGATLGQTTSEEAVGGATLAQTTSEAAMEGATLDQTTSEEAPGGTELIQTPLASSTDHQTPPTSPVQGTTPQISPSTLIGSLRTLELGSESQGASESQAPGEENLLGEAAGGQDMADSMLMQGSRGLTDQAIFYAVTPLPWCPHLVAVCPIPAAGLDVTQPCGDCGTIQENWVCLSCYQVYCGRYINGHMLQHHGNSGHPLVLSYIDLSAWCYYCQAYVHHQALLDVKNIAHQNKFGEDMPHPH

Full length Human HDAC8 = target: T2, Full length Human HDAC8 (Homo sapiens, UniProt Q9BY41); assay: Caliper endpoint assay for HDAC enzymatic activity (HDAC8); format: biochemical; settings: in vitro enzymatic, 30 min pre-incubation, 1 μM substrate peptide
T2 construct: Full length Human HDAC8; HIS (N); host or cells: baculovirus expression system
T2 sequence (Q9BY41 1-377): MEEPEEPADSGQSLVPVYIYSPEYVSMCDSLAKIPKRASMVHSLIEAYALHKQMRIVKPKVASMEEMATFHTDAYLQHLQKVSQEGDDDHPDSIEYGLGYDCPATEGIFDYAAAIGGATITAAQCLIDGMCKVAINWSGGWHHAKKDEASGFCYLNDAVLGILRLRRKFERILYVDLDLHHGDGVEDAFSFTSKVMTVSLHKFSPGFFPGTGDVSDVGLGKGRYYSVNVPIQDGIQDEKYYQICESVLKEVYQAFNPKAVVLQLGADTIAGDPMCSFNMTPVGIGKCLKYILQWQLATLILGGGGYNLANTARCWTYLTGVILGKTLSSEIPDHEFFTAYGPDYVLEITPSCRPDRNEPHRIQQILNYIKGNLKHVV

Compound | IC50 (Full length Human HDAC6) | Selectivity (6 v 8) (Full length Human HDAC6) | IC50 (Full length Human HDAC8)
O=C(NO)c1cc(F)c2c(c1)CN(CC13CC4CC(CC(C4)O1)C3)CC2 [Compound 213, 2-(((1r,3s,5R,7S)-2-oxaadamantan-1-yl)methyl)-5-fluoro-N-hydroxy-1,2,3,4-tetrahydroisoquinoline-7-carboxamide] | 1 to 100 nM | III (III: >10-100) | 100 to 1000 nM
O=C(NO)c1cc(F)c2c(c1)CCN(C1CC3(CCCO3)C1)C2 (single isomer, unassigned) [Compound 190, 8-fluoro-N-hydroxy-2-(5-oxaspiro[3.4]octan-2-yl)-1,2,3,4-tetrahydroisoquinoline-6-carboxamide] | 1 to 100 nM | IV (IV: >100-1000) | 1000 to 10000 nM
CN1CC2(CCC(N3CCc4cc(C(=O)NO)cc(F)c4C3)C2)C1 (centres unmarked) [Compound 389, 8-fluoro-2-(2-methyl-2-azaspiro[3.4]octan-6-yl)-3,4-dihydro-1H-isoquinoline-6-carbohydroxamic acid] | 1 to 100 nM | V (V: >1000) | > 100000 nM
CN1C[C@]2(CN3CCc4cc(C(=O)NO)cc(F)c4C3)C[C@H]1CO2 [Compound 475, 8-fluoro-2-[[(1R,4S)-5-methyl-2-oxa-5-azabicyclo[2.2.1]heptan-1-yl]methyl]-3,4-dihydro-1H-isoquinoline-6-carbohydroxamic acid] | 1 to 100 nM | IV (IV: >100-1000) | 10000 to 100000 nM
O=C(NO)c1cc(F)c2c(c1)CCN(C1CC3(CCCC3)C1)C2 [Compound 183, 8-fluoro-N-hydroxy-2-(spiro[3.4]octan-2-yl)-1,2,3,4-tetrahydroisoquinoline-6-carboxamide] | 1 to 100 nM | V (V: >1000) | > 100000 nM
CC[C@H]1Cc2c(F)cc(C(=O)NO)cc2CN1CC1CC2CCC(C1)N2C1CC1 (single isomer, unassigned) [Compound 576] | 1 to 100 nM | IV (IV: >100-1000) | 1000 to 10000 nM
CC(=O)N1CC2(CC(N3CCc4cc(C(=O)NO)cc(F)c4C3)C2)C1 [Compound 292, 2-(2-acetyl-2-azaspiro[3.3]heptan-6-yl)-8-fluoro-N-hydroxy-1,2,3,4-tetrahydroisoquinoline-6-carboxamide] | 1 to 100 nM | IV (IV: >100-1000) | 10000 to 100000 nM
O=C(NO)c1cc(F)c2c(c1)CCN(C1CCC13CCC3)C2 (centres unmarked) [Compound 299, 8-fluoro-2-spiro[3.3]heptan-3-yl-3,4-dihydro-1H-isoquinoline-6-carbohydroxamic acid] | 1 to 100 nM | IV (IV: >100-1000) | 10000 to 100000 nM
O=C(NO)c1cc(F)c2c(c1)CCN([C@H]1CCC3(CCCC3)C1)C2 (single isomer, unassigned) [Compound 185] | 1 to 100 nM | IV (IV: >100-1000) | 10000 to 100000 nM
O=C(NO)c1cc(F)c2c(c1)CCN(CC1CC3(CCN(C4CC4)CC3)C1)C2 [Compound 470, 2-[(7-cyclopropyl-7-azaspiro[3.5]nonan-2-yl)methyl]-8-fluoro-3,4-dihydro-1H-isoquinoline-6-carbohydroxamic acid] | 1 to 100 nM | IV (IV: >100-1000) | 10000 to 100000 nM
O=C(NO)c1cc(F)c(CN2C3CCC2CC(=NO)C3)cc1F [Compound 54] | 1 to 100 nM | III (III: >10-100) | 100 to 1000 nM
O=C(NO)c1cc(F)c2c(c1)CCN1CCCC[C@H]21 (single isomer, unassigned) [Compound 140] | 1000 to 10000 nM | – | 10000 to 100000 nM
CN1CCC[C@]2(CC[C@H]2N2CCc3cc(C(=O)NO)cc(F)c3C2)C1 (single isomer, unassigned) [Compound 363] | 1 to 100 nM | IV (IV: >100-1000) | 10000 to 100000 nM
O=C(NO)c1ccc2c(c1)CCN1CCC[C@H]21 [Compound 148] | 1000 to 10000 nM | II (II: >1-10) | 1000 to 10000 nM
CC[C@H]1Cc2c(F)cc(C(=O)NO)cc2CN1CC1CC2(CCCCC2)C1 (single isomer, unassigned) [Compound 522] | 1 to 100 nM | III (III: >10-100) | 100 to 1000 nM
O=C(NO)c1ccc2c(c1)C[C@@H]1COCCN1C2 [Compound 131] | 100 to 1000 nM | III (III: >10-100) | 1000 to 10000 nM

Continued, values first:

IC50 (Full length Human HDAC6) | Selectivity (6 v 8) (Full length Human HDAC6) | IC50 (Full length Human HDAC8) | Compound
1 to 100 nM | – | 1000 to 10000 nM | C[C@@H]1C[C@@H]2c3c(F)cc(C(=O)NO)cc3CCN2C1 (single isomer, unassigned) [Compound 151]
100 to 1000 nM | III (III: >10-100) | 10000 to 100000 nM | CC[C@@H]1Cc2c(F)cc(C(=O)NO)cc2CN1C1CCCC1 (single isomer, unassigned) [Compound 580]
100 to 1000 nM | – | 1000 to 10000 nM | CN1Cc2cc(C(=O)NO)ccc2[C@H]2CCCN21 (single isomer, unassigned) [Compound 161]
1 to 100 nM | IV (IV: >100-1000) | 1000 to 10000 nM | CN1CC2(C[C@@H](N3CCc4cc(C(=O)NO)cc(F)c4C3)CCO2)C1 (single isomer, unassigned) [Compound 451]
1 to 100 nM | – | 1000 to 10000 nM | C[C@H]1CC[C@H]2c3c(F)cc(C(=O)NO)cc3CCN12 (single isomer, unassigned) [Compound 157]
1 to 100 nM | IV (IV: >100-1000) | 1000 to 10000 nM | CC[C@H]1Cc2c(F)cc(C(=O)NO)cc2CN1CC12CC3CC(CC(C3)O1)C2 (single isomer, unassigned) [Compound 510]
1 to 100 nM | V (V: >1000) | 10000 to 100000 nM | O=C(NO)c1cc(F)c2c(c1)CCN(CC1CCC3(CC1)CN(C1CC1)C3)C2 [Compound 466, 2-[(2-cyclopropyl-2-azaspiro[3.5]nonan-7-yl)methyl]-8-fluoro-3,4-dihydro-1H-isoquinoline-6-carbohydroxamic acid]
1 to 100 nM | IV (IV: >100-1000) | 10000 to 100000 nM | O=C(NO)c1cc(F)c2c(c1)CCN([C@H]1CCN(Cc3ccccc3)C3(CCC3)C1)C2 (single isomer, unassigned) [Compound 443]
1 to 100 nM | IV (IV: >100-1000) | 10000 to 100000 nM | CC(=O)N1CCC2(CC1)CC(N1CCc3cc(C(=O)NO)cc(F)c3C1)C2 [Compound 199, 2-(7-acetyl-7-azaspiro[3.5]nonan-2-yl)-8-fluoro-N-hydroxy-1,2,3,4-tetrahydroisoquinoline-6-carboxamide]
1 to 100 nM | V (V: >1000) | 10000 to 100000 nM | O=C(NO)c1cc(F)c2c(c1)CCN([C@@H]1CCC3(CCC3)C1)C2 (single isomer, unassigned) [Compound 384]
1 to 100 nM | IV (IV: >100-1000) | 10000 to 100000 nM | O=C(NO)c1cc(F)c2c(c1)CCN(C1CCC3(CCNCC3)C1)C2 (centres unmarked) [Compound 416, 8-fluoro-N-hydroxy-2-(8-azaspiro[4.5]decan-2-yl)-1,2,3,4-tetrahydroisoquinoline-6-carboxamide]
1 to 100 nM | V (V: >1000) | 10000 to 100000 nM | CC(=O)N1CCCCC12CC(N1CCc3cc(C(=O)NO)cc(F)c3C1)C2 (centres unmarked) [Compound 355, 2-(5-acetyl-5-azaspiro[3.5]nonan-2-yl)-8-fluoro-3,4-dihydro-1H-isoquinoline-6-carbohydroxamic acid]
